From ChEMBL document CHEMBL2331186, “Five new phenolic glycosides from Hedyotis scandens” (Bioorg Med Chem Lett, 2013)
Activity calls are given as the source filed them. No cut-off for these calls is given here.

These compounds were tested on Respiratory syncytial virus (assay: Antiviral activity against Respiratory syncytial virus assessed as reduction of virus-induced cytopathic effect).
Format: functional, organism-based

SMILES	Activity
OCCc1cc(O)cc(O[C@@H]2O[C@H](CO)[C@@H](O)[C@H](O)[C@H]2O)c1	Active
Cc1occc(=O)c1O[C@@H]1O[C@H](CO[C@@H]2OC[C@](O)(CO)[C@H]2O)[C@@H](O)[C@H](O)[C@H]1O	Active

Each compound was assayed on Respiratory syncytial virus (assay: Antiviral activity against Respiratory syncytial virus assessed as reduction of virus-induced cytopathic effect at maximal non-toxic concentration).
Format: functional, organism-based

SMILES	Activity
COc1cc(O[C@@H]2O[C@H](CO[C@@H]3OC[C@](O)(COC(=O)/C=C/c4ccc(O)cc4)[C@H]3O)[C@@H](O)[C@H](O)[C@H]2O)cc(OC)c1OC	inactive
O=C(O)/C=C/c1ccc(O)c(O)c1	inactive
CCCCOC(=O)[C@@H](Cc1ccc(O)c(O)c1)OC(=O)/C=C/c1ccc(O)c(O[C@@H]2O[C@H](CO)[C@@H](O)[C@H](O)[C@H]2O)c1	inactive
COC(=O)[C@@H](Cc1ccc(O)c(O)c1)OC(=O)/C=C/c1ccc(O)c(O)c1	inactive
O=C(/C=C/c1ccc(O)c(O)c1)O/C=C\c1ccc(O)c(O)c1	inactive
N#C[C@H](O[C@@H]1O[C@H](CO[C@@H]2OC[C@](O)(COC(=O)/C=C/c3ccc(O)cc3)[C@H]2O)[C@@H](O)[C@H](O)[C@H]1O)c1ccccc1	inactive
Cc1occc(=O)c1O[C@@H]1O[C@H](CO[C@@H]2OC[C@](O)(COC(=O)/C=C/c3ccc(O)c(O)c3)[C@H]2O)[C@@H](O)[C@H](O)[C@H]1O	inactive
CCCCOC(=O)[C@@H](Cc1ccc(O)c(O)c1)OC(=O)/C=C/c1ccc(O)c(O)c1	inactive
O=C(/C=C/c1ccc(O)c(O)c1)O[C@H](Cc1ccc(O)c(O)c1)C(=O)O	inactive
COC(=O)[C@@H](Cc1ccc(O)c(O)c1)OC(=O)/C=C/c1ccc(OC)c(O)c1	inactive
COC(=O)[C@@H](Cc1ccc(O)c(O)c1)OC(=O)/C=C/c1ccc(O)c(O[C@@H]2O[C@H](CO)[C@@H](O)[C@H](O)[C@H]2O)c1	inactive
Cc1occc(=O)c1O[C@@H]1O[C@H](CO[C@@H]2OC[C@](O)(COC(=O)/C=C/c3ccc(O)cc3)[C@H]2O)[C@@H](O)[C@H](O)[C@H]1O	inactive
O=C(/C=C/c1ccc(O)c(O[C@@H]2O[C@H](CO)[C@@H](O)[C@H](O)[C@H]2O)c1)O/C=C\c1ccc(O)c(O)c1	inactive
